According to US20260378560A1, “APPROACHES TO DESIGNING AND PERFORMING COMPRESSED BIOLOGICAL EXPERIMENTS AND SYSTEMS FOR IMPLEMENTING THE SAME” (EXVIVO LABS INC., priority 2023, published 2026):

How the values were obtained:
[1] = tested on: REH; test: Cell viability (CellTiter Glo), compressed perturbation pools with informed pool design, SUM-based deconvolution, REH; set-up: scale not given here
Procedure: (§1) Total cell viability was measured for each sample using an ATP-based luminescence assay (i.e., CellTiter Glo). Each cancer drug was then screened at multiple concentrations ranging from one nM to ten μM in order to generate a dose-response curve and calculate a DRS for each cancer cell line.
(§2) Each cancer drug was cultured with target cells individually. At the end of the screen, samples were either analyzed individually or compressed into pools for analysis. The library was compressed alphabetically into ten cohorts, each of which contained seven cancer drugs present in three out of the seven pools, as shown in Table VII. Said another way, the screening platform 210 generated a “7 pick 3” compressed library by assigning the cancer drugs among different pools. […] The library was also compressed into ten cohorts with pools designed based on information known about each cancer drug, as shown in Table VIII. After cell viability measurement and DRS calculation, the DRS of each cancer drug in the samples generated based on the pools were deconvoluted and compared to the DRS for each cancer drug measured individually.
(§3) In parallel to the exemplary sample compression screen covered in Table VII, perturbations were compressed into pools and then screened. The pools were designed using drug class as a feature with two compression rules (or simply “rules”). The first rule required that drugs from the same class be separated into different cohorts (i.e., mutually exclusive groups of pools). The second rule separated PI3K pathway inhibitors from MAPK pathway inhibitors, as inhibiting these pathways in parallel is known to be synergistic but has not been clinically effective due to dose-limiting toxicities. A benefit of compressing perturbations is the ability to measure additive, antagonistic, and synergistic effects between drugs in the same pool. However, these effects can negatively impact deconvolution of individual drug effects. Therefore, combinations of drugs for which evidence of clinical toxicity exists can be assigned to different pools in accordance with an informed pooling operation. As new preclinical or clinical evidence of toxic combinations becomes available, the rules implemented by the screening platform 210—and more specifically, its algorithm for compressing members of a library—can be updated accordingly.
(§4) In SUM-based deconvolution, an assumption of additivity is used to quantify the individual effects of each perturbation on each target. Additivity implies that each perturbation effect on each target is positively contributing to the overall effect measured for that pool. This is an accurate assumption for certain experiments, such as when targets or samples are compressed. When targets are pooled—or when samples containing different targets are pooled—the effect of each perturbation on each individual target is diluted. In other words, each perturbation has an isolated effect on a target in culture, and the sum total of the isolated effects are measured when pooled. Therefore, SUM-based deconvolution breaks down the sum total measured for a pool and assigns estimated fractional effects to each compressed perturbation or target in the pool. The screening platform 210 used SUM-based deconvolution for all target and sample compression experiments described above.
(§5) As mentioned above, SUM-based deconvolution uses the overlapping pool design to identify relative relationships and ranges for the individual effects of each perturbation. When the overlapping pool design is not sufficient to solve for the polynomials representing perturbation effects, an anchor perturbation can be identified by the screening platform 210 based on rank order and assigned an effect size of zero. The anchor perturbation may be the lowest ranked perturbation in the rank order. This then enables the screening platform 210 to solve for the polynomials for the remaining perturbations.

[2] = tested on: MOLT-4; test: Cell viability (CellTiter Glo), compressed perturbation pools with informed pool design, SUM-based deconvolution, MOLT-4; set-up: scale not given here
Procedure: as §1, §2, §3, §4, §5

[3] = tested on: CCRF-CFM; test: ATP-based luminescence cell viability (CellTiter Glo), drug response score, CCRF-CFM; set-up: scale not given here; details: Target compression
From the text: As part of a screen, a drug could be screened at different concentrations ranging from a lowest concentration to a highest concentration. In such a scenario, multiple data structures may be obtained by the screening platform 210. […] With these multiple data structures, the analysis module 218 can generate a dose-response curve that describes the magnitude of the response of the biological target, as a function of exposure to different concentrations of the drug. Further, the analysis module 218 can calculate a metric that is indicative of the response of the biological target. In the event that the biological target is one of multiple biological targets that are introduced to the pools of drugs, the metric can be used by the screening platform 210 to better understand the relative magnitude of responses. One example of a metric is drug-response score (“DRS”). DRS can be calculated as a continuous function of multiple parameters of the non-linear dose-response curve, including the slope at the half-maximal effective concentration (also called “EC50”) and the top and bottom asymptotes of the dose-response curve. DRS can be calculated as follows: […]
where y is a continuous function of the variable dose x, a is the maximal response (i.e., the top asymptote of the curve), b is the slope of the curve, c is the IC50 (i.e., half-maximal inhibitory concentration), and d is the minimal response (i.e., the bottom asymptote of the curve). Other examples of metrics include those output by sigmoidal and Hill slide functions that, like DRS, incorporate multiple aspects of the dose-response curve into a continuous function.
(§6) Total cell viability was measured for each cancer cell line using an Adenosine TriPhosphate (“ATP”) assay, and more specifically an ATP-based luminescence assay (i.e., CellTiter Glo). Each cancer drug was screened at multiple concentrations ranging from one nanomolar (nM) to ten micromolar (UM) in order to generate a dose-response curve and calculate a drug response score (“DRS”) for each cancer cell line. The DRS was calculated as a continuous function of multiple parameters of the non-linear dose-response curve, including the slope at the half-maximal effective concentration (also called “EC50”) and the top and bottom asymptotes of the dose-response curve. […] After total cell viability was measured and DRS was calculated, the DRS of each cancer cell line in the pool was deconvolved for each cancer drug.
DRS for these anchor cell lines are bolded and italicized. Anchors can be identified based on frequency of the cell lines in pools with high DRS versus low DRS. At a high level, an anchor is predicted to be the cell line with the lowest individual DRS. In order to deconvolute individual cell line DRS values from pool DRS values, the anchor can start with an assumed DRS value of zero. Each pool can then be expressed as a polynomial of variables (cell lines in the pool) and constants (DRS value of the pool). The DRS value of each cell line can then be solved for using the anchor value and overlapping polynomial expressions. When multiple values are calculated for the final target solved from the polynomials, then the anchor has a non-zero value that can be determined based on the difference in the calculated value of the final target.
(§7) Each pool represented a co-culture of three cell lines (“Target Compression”).

[4] = tested on: co-culture of three cancer cell lines; test: Cell viability (CellTiter Glo) of compressed target pools, co-cultures of three cell lines (Target Compression); format: cell-based
Procedure: as §6, §7

[5] = tested on: JURKAT; test: ATP-based luminescence cell viability (CellTiter Glo), drug response score, JURKAT; details: screened individually (Compress: None)
[6] = 5 Pick 3, Pool 1 (REH, SUP-B15, CCRF-CFM)
[7] = 5 Pick 3, Pool 2 (SUP-B15, CCRF-HSB2, MOLT-4)
[8] = 5 Pick 3, Pool 3 (SUP-B15, CCRF-CFM, CCRF-HSB2)
[9] = 5 Pick 3, Pool 4 (REH, CCRF-CFM, MOLT-4)
[10] = 5 Pick 3, Pool 5 (REH, CCRF-HSB2, MOLT-4)
[11] = 6 Pick 3, Pool 1 (REH, CCRF-CFM, MOLT-4)
[12] = 6 Pick 3, Pool 2 (REH, CCRF-HSB2, MOLT-4)
[13] = 6 Pick 3, Pool 3 (REH, CCRF-CFM, JURKAT)
[14] = 6 Pick 3, Pool 4 (SUP-B15, CCRF-HSB2, JURKAT)
[15] = 6 Pick 3, Pool 5 (SUP-B15, CCRF-CFM, JURKAT)
[16] = 6 Pick 3, Pool 6 (SUP-B15, CCRF-HSB2, MOLT-4)
[17] = 7 Pick 3, Pool 1 (SUP-B15, CCRF-CFM, JURKAT)
[18] = 7 Pick 3, Pool 2 (SUP-B15, CCRF-HSB2, NALM-6)
[19] = 7 Pick 3, Pool 3 (SUP-B15, CCRF-CFM, NALM-6)
[20] = 7 Pick 3, Pool 7 (CCRF-CFM, CCRF-HSB2, MOLT-4)
[21] = 7 Pick 3, Pool 4 (REH, CCRF-HSB2, JURKAT)
[22] = 7 Pick 3, Pool 5 (REH, MOLT-4, NALM-6)
[23] = 7 Pick 3, Pool 6 (REH, MOLT-4, JURKAT)

SMILES: C=CC(=O)Nc1cc(Nc2nccc(-c3cn(C)c4ccccc34)n2)c(OC)cc1N(C)CCN(C)C [Osimertinib]
- DRS, REH, SUM [1]: 0.00
- DRS, MOLT-4, SUM [2]: 0.54

SMILES: Cc1[nH]c2ccccc2c1CCNCc1ccc(/C=C/C(=O)NO)cc1 [Panobinostat]
- DRS from deconvolution ([3]; 5 Pick 3 pools): 19.98
- DRS from deconvolution ([3]; 6 Pick 3 pools): 16.57
- DRS from deconvolution ([3]; 7 Pick 3 pools): 18.55
- DRS of pool [4, 6]: 17.85
- DRS of pool [4, 7]: 18.46
- DRS of pool [4, 8]: 20.02
- DRS of pool [4, 9]: 15.81
- DRS of pool [4, 10]: 16.48
- DRS of pool [4, 11]: 15.05
- DRS of pool [4, 12]: 15.25
- DRS of pool [4, 13]: 14.41
- DRS of pool [4, 14]: 18.23
- DRS of pool [4, 15]: 17.93
- DRS of pool [4, 16]: 18.22
- DRS of pool [4, 17]: 17.85
- DRS of pool [4, 18]: 18.41
- DRS of pool [4, 19]: 18.84
- DRS of pool [4, 20]: 16.92
- drug response score (DRS) [5]: 13.20

SMILES: COc1cc2ncnc(Nc3ccc(F)c(Cl)c3)c2cc1OCCCN1CCOCC1 [Gefitinib]
- DRS, REH, SUM [1]: 1.12
- DRS, MOLT-4, SUM [2]: 2.22

SMILES: COc1c(OCCCN2CCOCC2)ccc2c1N=C(NC(=O)c1cnc(N)nc1)N1CCN=C21 [Copanlisib]
- DRS from deconvolution ([3]; 5 Pick 3 pools): 15.66
- DRS from deconvolution ([3]; 6 Pick 3 pools): 15.88
- DRS from deconvolution ([3]; 7 Pick 3 pools): 15.03
- DRS of pool [4, 6]: 10.53
- DRS of pool [4, 7]: 6.47
- DRS of pool [4, 8]: 8.68
- DRS of pool [4, 9]: 13.21
- DRS of pool [4, 10]: 10.79
- DRS of pool [4, 11]: 12.63
- DRS of pool [4, 12]: 9.99
- DRS of pool [4, 13]: 9.72
- DRS of pool [4, 14]: 6.40
- DRS of pool [4, 15]: 6.40
- DRS of pool [4, 16]: 6.47
- DRS of pool [4, 17]: 6.55
- DRS of pool [4, 18]: 7.58
- DRS of pool [4, 19]: 10.22
- DRS of pool [4, 21]: 7.17
- DRS of pool [4, 22]: 11.88
- DRS of pool [4, 23]: 8.07
- DRS of pool [4, 20]: 10.65
- drug response score (DRS) [5]: 1.34

SMILES: N#Cc1ccnc(N2C(=O)CC[C@H]2C(=O)N(c2cncc(F)c2)[C@H](C(=O)NC2CC(F)(F)C2)c2ccccc2Cl)c1 [Ivosidenib]
- DRS from deconvolution ([3]; 5 Pick 3 pools): 1.15
- DRS from deconvolution ([3]; 6 Pick 3 pools): 0.89
- DRS from deconvolution ([3]; 7 Pick 3 pools): 1.01
- DRS of pool [4, 6]: 0.54
- DRS of pool [4, 7]: 0.60
- DRS of pool [4, 8]: 0.91
- DRS of pool [4, 9]: 0.63
- DRS of pool [4, 10]: 0.88
- DRS of pool [4, 11]: 0.60
- DRS of pool [4, 12]: 0.81
- DRS of pool [4, 13]: 0.77
- DRS of pool [4, 14]: 0.61
- DRS of pool [4, 15]: 0.57
- DRS of pool [4, 16]: 0.61
- DRS of pool [4, 17]: 0.57
- DRS of pool [4, 18]: 0.54
- DRS of pool [4, 19]: 0.34
- DRS of pool [4, 21]: 0.98
- DRS of pool [4, 22]: 0.27
- DRS of pool [4, 23]: 0.51
- DRS of pool [4, 20]: 0.95
- drug response score (DRS) [5]: 0.70

SMILES: CC1(C)CCC(CN2CCN(c3ccc(C(=O)NS(=O)(=O)c4ccc(NCC5CCOCC5)c([N+](=O)[O-])c4)c(Oc4cnc5[nH]ccc5c4)c3)CC2)=C(c2ccc(Cl)cc2)C1 [Venetoclax]
- DRS from deconvolution ([3]; 5 Pick 3 pools): 0.28
- DRS from deconvolution ([3]; 6 Pick 3 pools): 1.51
- DRS from deconvolution ([3]; 7 Pick 3 pools): 1.07
- DRS of pool [4, 6]: 14.50
- DRS of pool [4, 7]: 13.53
- DRS of pool [4, 8]: 13.46
- DRS of pool [4, 9]: 2.70
- DRS of pool [4, 10]: 2.43
- DRS of pool [4, 11]: 2.60
- DRS of pool [4, 12]: 2.26
- DRS of pool [4, 13]: 1.57
- DRS of pool [4, 14]: 13.22
- DRS of pool [4, 15]: 12.95
- DRS of pool [4, 16]: 13.01
- DRS of pool [4, 17]: 12.97
- DRS of pool [4, 18]: 14.37
- DRS of pool [4, 19]: 15.70
- DRS of pool [4, 21]: 1.25
- DRS of pool [4, 22]: 4.62
- DRS of pool [4, 23]: 2.25
- DRS of pool [4, 20]: 1.35
- DRS, REH, SUM [1]: 5.50
- DRS, MOLT-4, SUM [2]: 2.44
- drug response score (DRS) [5]: 0.00
